Test results reported in patent US8394408B2, “Gastric retentive extended-release dosage forms comprising combinations of a non-opioid analgesic and an opioid analgesic” (Depomed, Inc., priority 2008, dated 2013).

How the values were obtained:
[1] = cited from earlier work
[2] = Oxycodone degradation (DHOXY/OXY), effect of binder, 40° C., 75% RH open dish 8 days; assay type: physicochemical

Row | Structure (SMILES) | Solubility in water [1] | DHOXY/OXY (%), Physical Blend ([2]; 40° C., 75% RH, open-dish 8 days) | DHOXY/OXY (%), Physical Blend ([2]; t = 0)
1 | COc1ccc2c3c1O[C@H]1C(=O)CC[C@H]4[C@@H](C2)N(C)CC[C@]314.O=C(O)C(O)C(O)C(=O)O [hydrocodone bitartrate] | 62.5 mg/mL | – | –
2 | COc1ccc2c3c1O[C@H]1C(=O)CC[C@@]4(O)[C@@H](C2)N(C)CC[C@]314.Cl [oxycodone HCl] | – | 0.07% | 0.07%
